This note sets out measurements from US4248884A, “2-Pyrrolidine methanol derivatives utilizable as medicaments” (Pharmindustrie, priority 1978, dated 1981).

Data set [1] in a line: Acute toxicity by oral administration. The following applies: in vivo; male mouse CD1, oral, after three days of observation. From the text:
The acute toxicities of the compounds according to the invention have been determined on the male mouse CD1 (Charles River) by oral administration. The LD50 have been calculated, after three days of observation, by the cumulative method of J. J. Reed et al. (Am. J. Hyg., 1938, 27, 493), the disclosure of which is incorporated herein by reference.

For data set [2], the system named is serum triglycerides. The data set is described as follows: Hypotriglyceridemiant activity: olive oil induced experimental hypertriglyceridemia in fasting rats. It counts as in vivo, male rats. How it is done: Journal of Pharmacology, 1973, 23, 131, the disclosure of which is incorporated herein by reference.
The rats are killed two hours after the administration of the oil by decapitation. The serum is separated by centrifuging and the triglycerides are determined on an amount of 0.2 ml of serum by extraction with a heptane-isopropanol mixture and colorimetry according to the method of Van Handel et al., J. Lab. and Clin. Med., 1957, 50, 152-157, by using an assembly of analytical reagents known commercially as "Triclycerides-kit Bio Merieux".

In data set [3] the test system is reserpine induced hypothermia (central nervous system). The experiment in a line: Action on the central nervous system: reserpine induced hypothermia in mice. As to conditions: Mus musculus, oral, read-out: DE50 oral (dose exerting an antihypothermic effect equal to 50% of that caused by 15 mg/kg oral imipramine). Type of data set: in vivo. How it is done: The activity of the products on the central nervous system has been shown by the test of reserpine induced hypothermia in mice, according to the method of D. M. Asken, Life Sciences, 1963, vol. 2, p. 725, the disclosure of which is incorporated herein by reference,
The results are expressed by a DE50 or dose of product, in mg/kg, capable of exerting an antihypothermic effect equal to 50% of the antihypothermic effect caused by 15 mg/kg (oral) of imipramine.

The mark [4] stands for this setting: rat, oral, 100 mg/kg, 2 h before 20 ml/kg olive oil, Student Fischer T test 0.01, read-out: % of inhibition (relative reduction of the proportion of serum triglycerides with respect to control animals).
The mark [5] stands for this setting: Rattus norvegicus, po, read-out: % of inhibition (relative reduction of the proportion of serum triglycerides with respect to control animals).

Read-outs that look alike come from different tables or passages of the source.

For the molecule `O[C@H](c1ccc(C2CCCCC2)cc1)[C@@H]1CCCN1` (relative stereo) [Example 8, α-(4-cyclohexyl-phenyl)-2-pyrrolidine methanol (erythro isomer)], the LD50 at 72 h in data set [1] is above 900 mg/kg.

In turn, `OCCN1CCC[C@@H]1[C@H](O)c1ccccc1` (relative stereo) [Example 5, α-phenyl-2-(1-β-hydroxyethyl-pyrrolidine)methanol(threo isomer)] showed an LD50 at 72 h in data set [1] of 675 mg/kg. In addition, in data set [2] (setting [4]), the inhibition at 100 mg/kg is 45%.

As for `CN1CCC[C@@H]1[C@H](O)c1ccccc1` (relative stereo) [Example 4, α-phenyl-2-(1-methyl-pyrrolidine)methanol (threo isomer)], the LD50 at 72 h in data set [1] was 800 mg/kg.

Consider `O[C@H](c1ccc(Cl)cc1)[C@@H]1CCCN1` (relative stereo) [Example 6, α-(4-chloro-phenyl)-2-pyrrolidine methanol (erythro isomer)], for which, in data set [1], the LD50 at 72 h came out at 675 mg/kg. Also, in data set [3], the ED50 worked out at 18 mg/kg.

As to `O[C@H](c1ccccc1)[C@H]1CCCN1` (relative stereo) [Example 2, α-phenyl-2-pyrrolidine methanol (threo isomer)], in data set [1], the LD50 at 72 h came to 600 mg/kg. Further, the ED50 in data set [3] was above 150 mg/kg. Also, in data set [2] (setting [5]), the inhibition at 6.25 mg/kg was 41% and the inhibition at 50 mg/kg amounted to 45%. For the same molecule, the “hypotriglyceridemiant activity (in words)” value in data set [2] (rat, oral, Example 2 at 6.25 mg/kg) was “still very active”.

Regarding `CC(C)(C)c1ccc([C@@H](O)[C@@H]2CCCN2)cc1` (relative stereo) [Example 10, α-(4-tertiobutyl-phenyl)-2-pyrrolidine methanol (erythro isomer)], in data set [1], the LD50 at 72 h worked out at 600 mg/kg.

`O[C@H](c1ccccc1)[C@H]1CCCN1Cc1ccccc1` (relative stereo) [Example 3, α-phenyl-2-(1-benzyl-pyrrolidine) methanol (threo isomer)] registered an LD50 at 72 h in data set [1] of 270 mg/kg.

On to `O=C(O)c1cccnc1` [Nictotinic acid, nicotinic acid, reference compound], for which the inhibition at 100 mg/kg in data set [2] (setting [5]) was 50%.

In data set [1], `O[C@H](c1ccc(Cl)cc1)[C@H]1CCCN1` (relative stereo) [Example 7, α-(4-chloro-phenyl)-2-pyrrolidine methanol (threo isomer)] gave a median lethal dose (LD50) at 72 h of 400 mg/kg. Further, the ED50 in data set [3] is above 50 mg/kg. Moreover, in data set [2] (setting [4]), the inhibition at 100 mg/kg came out at 41%.

Consider `O[C@H](c1ccccc1)[C@@H]1CCCN1` (relative stereo) [Example 1, α-phenyl-2-pyrrolidine-methanol (erythro isomer)], for which the ED50 in data set [3] stood at 4.5 mg/kg. The inhibition at 50 mg/kg in data set [2] (setting [5]) was 33%.

Broadly, the LD50 is the dose expected to kill half of the subjects tested. The low end stands for a more toxic substance, the high end for a less toxic substance. Usually inhibition stands for the share of the control response that was lost under treatment.
